# According to US7432392B2, “Ester derivatives and medical use thereof” (Japan Tobacco Inc., priority 2003, dated 2008):
# How the values were obtained:
# [1] = system: apolipoprotein B secretion from HepG2 cells; test: Inhibition of apolipoprotein B secretion from HepG2 cells; format: cell-based; settings: Homo sapiens, about 20 hours incubation, apo B in supernatant by ELISA
# Protocol: HepG2 cells were suspended in Dulbecco's Modified Eagle's Medium (DMEM) (containing 10% fetal bovine serum, 100 units/mL penicillin and 100 μg/mL streptomycin), and placed on a 96-well plate (4×10^4 cells/well), then incubated for 24 hours. After removal of the medium, DMEM was replaced by a medium containing a sample dissolved in DMSO or a medium containing DMSO (concentration of DMSO: 0.5%) and incubation was further performed for about 20 hours, after which the supernatant was recovered, and concentration of apo B in the supernatant was assayed by Enzyme-Linked Immunosorbent Assay (ELISA)
# ELISA was carried out as follows. Anti-human apo B monoclonal antibody (0.5 μg/well) diluted with a 50 mM sodium carbonate/sodium bicarbonate buffer was placed in a 96-well plate for ELISA, and allowed to stand at room temperature for 15 hours. After washing the plate, a blocking solution (250 μL/well) was placed in the well, and allowed to stand at room temperature for 1.5 hours. After washing the plate, a standard and a sample (100 μL/well) were placed in the well and allowed to stand at room temperature for 1.5 hours. The standard was prepared by adjusting the concentration of the purified human apo B with the DMEM to 0 to 250 ng/mL. After washing the plate, an anti-human apo B polyclonal antibody labeled with a horse radish peroxidase which was diluted in 1:1000 with DEME (100 μL/well) was added, and allowed to stand at room temperature for 1.5 hours. After washing the plate, 2,2-azinobis(3-ethylbenzothiazoline-6-sulfonic acid) solution (100 μL/well) was placed in the well, and allowed to stand at room temperature for 0.5 hour. The reaction was stopped by addition of 2% oxalic acid (100 μL/well), and absorbency at 405 nm was measured. Concentration of apo B in the sample was calculated on the basis of a standard curve of the standard. Inhibition rate (%) was calculated from the assayed values in accordance with the following equation. Inhibition rate (%)=100×(1 minus (concentration of apo B in sample group/concentration of apo B in DMSO group).
# Based on the above equation, 50% inhibition concentration (IC50) was determined.
# [2] = Metabolic stability test in small intestine S9 (human); format: in vitro ADME; settings: Human small intestine S9, 2 mg protein/mL, 37° C.
# Protocol: (§1) Human and hamster liver S9 (final concentration: 2 mg protein/mL), and human and hamster small intestine S9 (final concentration: 2 mg protein/mL) were each suspended in 100 mM potassium phosphate buffer (pH 7.4, containing β-nicotinamide adenine dinucleotide phosphate: 1.3 mM, D-glucose-6-phosphate: 3.3 mM, magnesium chloride: 3.3 mM, and glucose-6-phosphate dehydrogenase: 0.4 U/mL). The suspensions were mixed with a solution of a sample (Example 1) in DMSO. The solutions were incubated at 37° C. for 0, 10 and 60 minutes, and an organic solvent was added thereto. The solutions were centrifuged, and the concentration of the sample (unchanged form) in the supernatant was determined by high performance liquid chromatography/mass spectrometry (LC/MS). Based on the data obtained, remaining rate (%) was calculated according to the following equation. Remaining rate(%)=amount of sample 10 or 60 minutes after incubation/amount of sample at zero time after incubation×100
# [3] = Metabolic stability test in liver S9 (human); format: in vitro ADME; settings: Human liver S9, 2 mg protein/mL, 37° C.
# Protocol: as §1
# [4] = Metabolic stability test in small intestine S9 (hamster); format: in vitro ADME; settings: Hamster small intestine S9, 2 mg protein/mL, 37° C.
# Protocol: as §1
# [5] = Metabolic stability test in liver S9 (hamster); format: in vitro ADME; settings: Hamster liver S9, 2 mg protein/mL, 37° C.
# Protocol: as §1
compound,measurement,setting,value
"CCOC(=O)C(COC(=O)Cc1ccc(NC(=O)c2ccccc2-c2ccc(C(F)(F)F)cc2)c(OC(C)=O)c1)(C(=O)OCC)c1ccccc1 [Example 1, 2-(2-{3-acetoxy-4-[(4′-trifluoromethyl-biphenyl-2-carbonyl)amino]phenyl}acetoxymethyl)-2-phenylmalonic acid diethyl ester]",IC50,[1],< 1000 nM
same,Remaining rate (%) after 10 minutes,[2]; 10 minutes,7.5%
same,Remaining rate (%) after 60 minutes,[2]; 60 minutes,1.1%
same,Remaining rate (%) after 10 minutes,[3]; 10 minutes,6.2%
same,Remaining rate (%) after 60 minutes,[3]; 60 minutes,1.8%
same,Remaining rate (%) after 10 minutes,[4]; 10 minutes,4.1%
same,Remaining rate (%) after 60 minutes,[4]; 60 minutes,0.0%
same,Remaining rate (%) after 10 minutes,[5]; 10 minutes,1.6%
same,Remaining rate (%) after 60 minutes,[5]; 60 minutes,0.0%
